Key:
Type in all cases: in vivo
[1] = test system: barnyardgrass (Echinochloa crus-galli); assay: Test A pre-/postemergence plant response
In short: (§1)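 Formulated test chemicals (non-phytotoxic solvent, surfactant) were sprayed onto soil right after planting and simultaneously onto young plants at one to two leaves, 2 to 10 cm tall. Plants stayed in the greenhouse about ten days; injury was then visually scored against untreated controls, from 0 (no effect) to 100 (complete control).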

[2] = test system: corn (Zea mays); assay: Test A pre-/postemergence plant response
In short: as §1

[3] = test system: giant foxtail (Setaria faberii); assay: Test A pre-/postemergence plant response
In short: as §1

[4] = test system: large crabgrass (Digitaria sanguinalis); assay: Test A pre-/postemergence plant response
In short: as §1

[5] = test system: morningglory (Ipomoea spp.); assay: Test A pre-/postemergence plant response
In short: as §1

[6] = test system: pigweed (Amaranthus retroflexus); assay: Test A pre-/postemergence plant response
In short: as §1

[7] = test system: velvetleaf (Abutilon theophrasti); assay: Test A pre-/postemergence plant response
In short: as §1

[8] = test system: wheat (Triticum aestivum); assay: Test A pre-/postemergence plant response
In short: as §1

[9] = test system: canarygrass (Phalaris minor); assay: Test B postemergence plant response; conditions: for Canarygrass plant response rating: scale 0 to 100
In short: (§2)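 Visual ratings from 0 (no effect) to 100 (complete control), made against controls 13–15 days after treatment, kept in a greenhouse. Compounds were applied postemergence to potted plants at the 1- to 4-leaf stage (2–18 cm).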

[10] = test system: chickweed (Stellaria media); assay: Test B postemergence plant response; conditions: for Chickweed plant response rating: scale 0 to 100
In short: as §2

[11] = test system: windgrass (Apera spica-venti); assay: Test B postemergence plant response
In short: as §2

[12] = test system: winter barley (Hordeum vulgare); assay: Test B postemergence plant response; conditions: for Barley plant response rating: scale 0 to 100
In short: as §2

[13] = Postemergence, 125 g ai/ha, visual injury, 0 to 100 scale (0 no effect, 100 complete control), approx. ten days
[14] = Postemergence, 500 g ai/ha, 0 to 100 scale, 0 = no effect, 100 = complete control, approx. ten days
[15] = Preemergence, 125 g ai/ha, 0 to 100 scale, 0 = no effect, 100 = complete control
[16] = Preemergence, 500 g ai/ha, visual injury, 0 to 100 scale (0 no effect, 100 complete control), approx. ten days
[17] = Postemergence, 31 g ai/ha, scale 0 to 100 (0 no effect, 100 complete control)
[18] = Postemergence, 62 g ai/ha, scale 0 (no effect) to 100 (complete control), 13 to 15 days
[19] = Postemergence, 125 g ai/ha, visual rating after 13 to 15 days, scale 0 (no effect) to 100 (complete control)
[20] = 31 g ai/ha, postemergence, scale 0 to 100, 0 is no effect, 100 is complete control
[21] = Postemergence, 250 g ai/ha, scale 0 to 100 (0 no effect, 100 complete control)

Cc1ccc(F)cc1-n1c(-c2ccccc2)ncc(C(=O)C2=C(O)CCCC2=O)c1=O [Compound 44]
Barnyardgrass plant response rating [1, 13]: 90
Plant response rating, Barnyardgrass [1, 14]: 100
Plant response rating, Barnyardgrass [1, 15]: 30
Plant response rating, Barnyardgrass [1, 16]: 100
Corn plant response rating [2, 13]: 0
Plant response rating, Corn [2, 14]: 40
Plant response rating, Corn [2, 15]: 0
Plant response rating, Corn [2, 16]: 0
Foxtail, Giant plant response rating [3, 13]: 80
Plant response rating, Foxtail, Giant [3, 14]: 90
Plant response rating, Foxtail, Giant [3, 15]: 30
Plant response rating, Foxtail, Giant [3, 16]: 90
Crabgrass, Large plant response rating [4, 13]: 80
Plant response rating, Crabgrass, Large [4, 14]: 90
Plant response rating, Crabgrass, Large [4, 15]: 80
Plant response rating, Crabgrass, Large [4, 16]: 90
Morningglory plant response rating [5, 13]: 80
Plant response rating, Morningglory [5, 14]: 90
Plant response rating, Morningglory [5, 15]: 20
Plant response rating, Morningglory [5, 16]: 70
Pigweed plant response rating [6, 13]: 100
Plant response rating, Pigweed [6, 14]: 100
Plant response rating, Pigweed [6, 15]: 60
Plant response rating, Pigweed [6, 16]: 90
Velvetleaf plant response rating [7, 13]: 100
Plant response rating, Velvetleaf [7, 14]: 100
Plant response rating, Velvetleaf [7, 15]: 70
Plant response rating, Velvetleaf [7, 16]: 100
Wheat plant response rating [8, 13]: 0
Plant response rating, Wheat [8, 14]: 20
Plant response rating, Wheat [8, 15]: 0
Plant response rating, Wheat [8, 16]: 0
Plant response rating, Canarygrass [9, 17]: 20
Plant response rating, Canarygrass [9, 18]: 20
Plant response rating, Canarygrass [9, 19]: 30
Canarygrass plant response rating ([9]; Postemergence, 250 g ai/ha): 40
Plant response rating, Chickweed [10, 17]: 90
Plant response rating, Chickweed [10, 18]: 95
Plant response rating, Chickweed [10, 19]: 98
Chickweed plant response rating ([10]; Postemergence, 250 g ai/ha): 100
Plant response rating, Windgrass [11, 18]: 70
Plant response rating, Windgrass [11, 19]: 85
Plant response rating, Barley [12, 17]: 0
Plant response rating, Barley [12, 18]: 0
Plant response rating, Barley [12, 19]: 5
Barley plant response rating ([12]; Postemergence, 250 g ai/ha): 15

Cc1cccc(Cl)c1-n1c(-c2ccccc2)ncc(C(=O)C2=C(O)CCCC2=O)c1=O [Compound 46]
Barnyardgrass plant response rating [1, 13]: 80
Plant response rating, Barnyardgrass [1, 14]: 90
Plant response rating, Barnyardgrass [1, 15]: 0
Plant response rating, Barnyardgrass [1, 16]: 50
Corn plant response rating [2, 13]: 0
Plant response rating, Corn [2, 14]: 20
Plant response rating, Corn [2, 15]: 0
Plant response rating, Corn [2, 16]: 0
Foxtail, Giant plant response rating [3, 13]: 60
Plant response rating, Foxtail, Giant [3, 14]: 90
Plant response rating, Foxtail, Giant [3, 15]: 0
Plant response rating, Foxtail, Giant [3, 16]: 60
Crabgrass, Large plant response rating [4, 13]: 70
Plant response rating, Crabgrass, Large [4, 14]: 90
Plant response rating, Crabgrass, Large [4, 15]: 30
Plant response rating, Crabgrass, Large [4, 16]: 80
Morningglory plant response rating [5, 13]: 60
Plant response rating, Morningglory [5, 14]: 70
Plant response rating, Morningglory [5, 15]: 10
Plant response rating, Morningglory [5, 16]: 70
Pigweed plant response rating [6, 13]: 80
Plant response rating, Pigweed [6, 14]: 100
Plant response rating, Pigweed [6, 15]: 60
Plant response rating, Pigweed [6, 16]: 90
Velvetleaf plant response rating [7, 13]: 100
Plant response rating, Velvetleaf [7, 14]: 100
Plant response rating, Velvetleaf [7, 15]: 40
Plant response rating, Velvetleaf [7, 16]: 70
Wheat plant response rating [8, 13]: 0
Plant response rating, Wheat [8, 14]: 0
Plant response rating, Wheat [8, 15]: 0
Plant response rating, Wheat [8, 16]: 20
Plant response rating, Canarygrass [9, 17]: 0
Plant response rating, Canarygrass [9, 18]: 0
Plant response rating, Canarygrass [9, 19]: 0
Canarygrass plant response rating ([9]; Postemergence, 250 g ai/ha): 0
Plant response rating, Chickweed [10, 17]: 80
Plant response rating, Chickweed [10, 18]: 95
Plant response rating, Chickweed [10, 19]: 95
Chickweed plant response rating ([10]; Postemergence, 250 g ai/ha): 98
Plant response rating, Windgrass [11, 18]: 10
Plant response rating, Windgrass [11, 19]: 15
Plant response rating, Barley [12, 17]: 0
Plant response rating, Barley [12, 18]: 0
Plant response rating, Barley [12, 19]: 0
Barley plant response rating ([12]; Postemergence, 250 g ai/ha): 0

Cc1cc(-n2c(-c3ccccc3)ncc(C(=O)C3=C(O)CCCC3=O)c2=O)ccc1F [Compound 53]
Barnyardgrass plant response rating [1, 13]: 90
Plant response rating, Barnyardgrass [1, 14]: 100
Plant response rating, Barnyardgrass [1, 15]: 40
Plant response rating, Barnyardgrass [1, 16]: 100
Corn plant response rating [2, 13]: 0
Plant response rating, Corn [2, 14]: 80
Plant response rating, Corn [2, 15]: 0
Plant response rating, Corn [2, 16]: 0
Foxtail, Giant plant response rating [3, 13]: 90
Plant response rating, Foxtail, Giant [3, 14]: 90
Plant response rating, Foxtail, Giant [3, 15]: 70
Plant response rating, Foxtail, Giant [3, 16]: 100
Crabgrass, Large plant response rating [4, 13]: 90
Plant response rating, Crabgrass, Large [4, 14]: 100
Plant response rating, Crabgrass, Large [4, 15]: 90
Plant response rating, Crabgrass, Large [4, 16]: 100
Morningglory plant response rating [5, 13]: 100
Plant response rating, Morningglory [5, 14]: 100
Plant response rating, Morningglory [5, 15]: 80
Plant response rating, Morningglory [5, 16]: 90
Pigweed plant response rating [6, 13]: 100
Plant response rating, Pigweed [6, 14]: 100
Plant response rating, Pigweed [6, 15]: 90
Plant response rating, Pigweed [6, 16]: 100
Velvetleaf plant response rating [7, 13]: 100
Plant response rating, Velvetleaf [7, 14]: 100
Plant response rating, Velvetleaf [7, 15]: 80
Plant response rating, Velvetleaf [7, 16]: 90
Wheat plant response rating [8, 13]: 30
Plant response rating, Wheat [8, 14]: 50
Plant response rating, Wheat [8, 15]: 0
Plant response rating, Wheat [8, 16]: 10
Plant response rating, Canarygrass [9, 20]: 40
Plant response rating, Canarygrass [9, 18]: 80
Plant response rating, Canarygrass [9, 19]: 90
Plant response rating, Canarygrass [9, 21]: 90
Plant response rating, Chickweed [10, 20]: 85
Plant response rating, Chickweed [10, 18]: 98
Plant response rating, Chickweed [10, 19]: 98
Plant response rating, Chickweed [10, 21]: 100
Plant response rating, Windgrass [11, 20]: 60
Plant response rating, Windgrass [11, 18]: 80
Plant response rating, Windgrass [11, 19]: 85
Plant response rating, Windgrass [11, 21]: 95
Plant response rating, Barley [12, 20]: 0
Plant response rating, Barley [12, 18]: 50
Plant response rating, Barley [12, 19]: 70
Plant response rating, Barley [12, 21]: 70

Cn1c(-c2ccccc2)ncc(C(=O)C2=C(O)CCCC2=O)c1=O [Compound 55]
Barnyardgrass plant response rating [1, 13]: 50
Plant response rating, Barnyardgrass [1, 14]: 70
Plant response rating, Barnyardgrass [1, 15]: 0
Plant response rating, Barnyardgrass [1, 16]: 10
Corn plant response rating [2, 13]: 0
Plant response rating, Corn [2, 14]: 10
Plant response rating, Corn [2, 15]: 0
Plant response rating, Corn [2, 16]: 0
Foxtail, Giant plant response rating [3, 13]: 20
Plant response rating, Foxtail, Giant [3, 14]: 60
Plant response rating, Foxtail, Giant [3, 15]: 0
Plant response rating, Foxtail, Giant [3, 16]: 0
Crabgrass, Large plant response rating [4, 13]: 70
Plant response rating, Crabgrass, Large [4, 14]: 90
Plant response rating, Crabgrass, Large [4, 15]: 0
Plant response rating, Crabgrass, Large [4, 16]: 50
Morningglory plant response rating [5, 13]: 90
Plant response rating, Morningglory [5, 14]: 90
Plant response rating, Morningglory [5, 15]: 30
Plant response rating, Morningglory [5, 16]: 60
Pigweed plant response rating [6, 13]: 90
Plant response rating, Pigweed [6, 14]: 100
Plant response rating, Pigweed [6, 15]: 50
Plant response rating, Pigweed [6, 16]: 100
Velvetleaf plant response rating [7, 13]: 100
Plant response rating, Velvetleaf [7, 14]: 100
Plant response rating, Velvetleaf [7, 15]: 60
Plant response rating, Velvetleaf [7, 16]: 60
Wheat plant response rating [8, 13]: 0
Plant response rating, Wheat [8, 14]: 0
Plant response rating, Wheat [8, 15]: 0
Plant response rating, Wheat [8, 16]: 0
Plant response rating, Canarygrass [9, 20]: 0
Plant response rating, Canarygrass [9, 18]: 0
Plant response rating, Canarygrass [9, 19]: 0
Plant response rating, Canarygrass [9, 21]: 0
Plant response rating, Chickweed [10, 20]: 65
Plant response rating, Chickweed [10, 18]: 75
Plant response rating, Chickweed [10, 19]: 80
Plant response rating, Chickweed [10, 21]: 90
Plant response rating, Windgrass [11, 20]: 0
Plant response rating, Windgrass [11, 18]: 0
Plant response rating, Windgrass [11, 19]: 0
Plant response rating, Windgrass [11, 21]: 5
Plant response rating, Barley [12, 20]: 0
Plant response rating, Barley [12, 18]: 0
Plant response rating, Barley [12, 19]: 0
Plant response rating, Barley [12, 21]: 0

Reference: US8952024B2, “Herbicidal pyrimidone derivatives” (E I du Pont de Nemours and Company, priority 2009, dated 2015)
